Measurements published in ChEMBL document CHEMBL6182910, “Design, Synthesis, and Biological Evaluation of 4-(Difluoromethyl)-1H-imidazole-5-carboxylic Acids/4-(3-Cyanophenoxy)pyrimidine-5-carboxylic Acids as P2Y1 Receptor Antagonists for Ischemic Stroke Treatment” (J Med Chem, 2025).
Active and inactive are the calls of the source. The calls are words filed in the database; no cut-off is given here.

Tests used:
[1] = MRT (0 to infinity) male Sprague-Dawley rat at 10 mg/kg, iv measured up to 24 hrs by LC-MS/MS analysis; type: ADME, organism-based; details: in vivo
CYP1A2 = molecular target: T1, CYP1A2 (Homo sapiens, UniProt P05177); assay: Inhibition of CYP1A2 in human liver microsomes using phenacetin as substrate at 10 uM preincubated for 5 min followed by NADPH addition measured after 120 mins by LC-MS/MS analysis relative to control; type: ADME, Microsome; details: probe phenacetin, time 125 min
T1 sequence (P05177 whole entry): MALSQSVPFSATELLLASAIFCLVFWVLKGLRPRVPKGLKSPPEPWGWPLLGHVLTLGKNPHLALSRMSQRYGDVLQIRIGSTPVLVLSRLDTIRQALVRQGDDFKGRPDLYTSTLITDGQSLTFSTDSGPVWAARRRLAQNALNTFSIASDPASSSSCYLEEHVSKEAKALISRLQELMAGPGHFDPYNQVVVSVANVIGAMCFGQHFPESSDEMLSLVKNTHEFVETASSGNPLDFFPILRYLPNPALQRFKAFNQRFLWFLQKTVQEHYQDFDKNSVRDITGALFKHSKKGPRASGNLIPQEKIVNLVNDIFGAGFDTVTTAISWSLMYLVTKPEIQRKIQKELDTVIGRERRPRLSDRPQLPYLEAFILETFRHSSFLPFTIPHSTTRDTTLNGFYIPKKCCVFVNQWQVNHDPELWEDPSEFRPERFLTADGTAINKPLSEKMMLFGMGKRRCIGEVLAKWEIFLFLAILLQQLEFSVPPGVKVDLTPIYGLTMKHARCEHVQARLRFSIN

Rattus norvegicus [2] = assay: Neuroprotective activity in MCAO-induced brain damage Sprague-Dawley rat model assessed as clear nucleoli with uniform staining at 2.5 to 10 mg/kg, iv administered immediately after arterial occlusion measured after 24 hrs by H and E staining based analysis; type: functional, organism-based; details: dose 2.5-10 mg/kg
HT-22 = assay: Neuroprotective activity against H2O2-induced oxidative stress in mouse HT-22 cells assessed as increase in nuclear Nrf2 level at 10 uM preincubated for 2 hrs followed by H2O2 addition measured after 16 hrs by Western blot analysis; type: functional, cell-based; details: time 18.0 hrs
[3] = Apparent volume of distribution male Sprague-Dawley rat at 10 mg/kg, iv measured up to 24 hrs by LC-MS/MS analysis; type: ADME, organism-based; details: in vivo, read-out: Vz
[4] = molecular target: P2Y purinoceptor 1 (Rattus norvegicus) (UniProt P49651); assay: Induction of thermal stabilization of P2Y1 receptor in rat platelet-rich plasma at 10 uM incubated for 30 mins followed by heat exposure at 48 to 62 degreeC for 10 mins by CETSA; type: cell-free; details: time 40.0 min
[5] = AUC in plasma of male Sprague-Dawley rat at 10 mg/kg, iv measured for 0.083 to 24 hrs by LC-MS/MS analysis; type: ADME, organism-based; details: time 0.083-24 hrs
[6] = Ratio of AUC in brain to plasma of male Sprague-Dawley rat at 10 mg/kg, iv measured for 0.083 to 24 hrs by LC-MS/MS analysis; type: ADME, organism-based; details: brain and plasma, time 0.083-24 hrs, read-out: Ratio AUC
Rattus norvegicus [7] = assay: Neuroprotective activity in MCAO-induced brain damage Sprague-Dawley rat model assessed as reduction in brain water content at 2.5 to 10 mg/kg, iv administered immediately after arterial occlusion measured after 24 hrs; type: functional, organism-based; details: dose 2.5-10 mg/kg
Rattus norvegicus [8] = assay: Anti-platelet aggregation in Sprague-Dawley rat assessed as reduction in ADP-induced bleeding loss at 10 mg/kg, po measured for 15 mins in presence of 10 uM ADP; type: functional, organism-based
[9] = Ratio of AUC in brain to plasma of male Kunming mouse at 10 mg/kg, iv measured for 0.083 to 24 hrs by LC-MS/MS analysis; type: ADME, organism-based; details: brain and plasma, time 0.083-24 hrs, read-out: Ratio AUC
CYP2C19 = CYP2C19 (Homo sapiens, UniProt P33261); assay: Inhibition of CYP2C19 in human liver microsomes using S-mephenytoin as substrate at 10 uM preincubated for 5 min followed by NADPH addition measured after 120 mins by LC-MS/MS analysis relative to control; type: ADME, Microsome; details: probe S-mephenytoin, time 125 min
[10] = AUC in brain of male Kunming mouse at 10 mg/kg, iv measured for 0.083 to 24 hrs by LC-MS/MS analysis; type: ADME, organism-based; details: in vivo, time 0.083-24 hrs
CYP3A4 = CYP3A4 (Homo sapiens, UniProt P08684); assay: Inhibition of CYP3A4 in human liver microsomes using nifedipine as substrate at 10 uM preincubated for 5 min followed by NADPH addition measured after 120 mins by LC-MS/MS analysis relative to control; type: ADME, Microsome; details: probe nifedipine, time 125 min
Rattus norvegicus [11] = assay: Neuroprotective activity in MCAO-induced brain damage Sprague-Dawley rat model assessed as improvement in motor co-ordination administered intravenously immediately after arterial occlusion measured after 24 hrs by Longa's method; type: functional, organism-based; details: dose 2.5-10 mg/kg, route iv
[12] = Cmax male Sprague-Dawley rat at 10 mg/kg, iv measured up to 24 hrs by LC-MS/MS analysis; type: ADME, organism-based; details: in vivo
[13] = Protein binding in rat brain homogenate at 10 uM incubated for 12 hrs by equilibrium dialysis method; type: ADME, tissue-based; details: read-out: PB (converted)
[14] = Metabolic stability in rat liver microsomes assessed as parent compound remaining at 1 uM measured after 3 hrs in presence of NADPH by LC-MS/MS analysis; type: ADME, Microsome; details: read-out: Stability
Rattus norvegicus [15] = assay: Neuroprotective activity in MCAO-induced brain damage Sprague-Dawley rat model assessed as brain infarction size at 2.5 mg/kg, iv administered immediately after arterial occlusion measured after 24 hrs by TTC staining based analysis (reference value: 43.1 %); type: functional
Rattus norvegicus [16] = assay: Anti-platelet aggregation in Sprague-Dawley rat assessed as inhibition of ADP-induced platelet aggregation at 10 mg/kg, po measured for 15 mins in presence of 10 uM ADP by cell counter analysis relative to control; type: functional; details: 0.25 h
Rattus norvegicus [17] = assay: Neuroprotective activity in MCAO-induced brain damage Sprague-Dawley rat model assessed as plasma MDA level at 2.5 to 10 mg/kg, iv administered immediately after arterial occlusion measured after 24 hrs (reference value: 51.7 %); type: functional; details: dose 2.5-10 mg/kg
[18] = Oral bioavailability male Sprague-Dawley rat at 10 mg/kg measured up to 24 hrs by LC-MS/MS analysis; type: ADME, organism-based; details: in vivo
[19] = Clearance male Sprague-Dawley rat at 10 mg/kg, iv measured up to 24 hrs by LC-MS/MS analysis; type: ADME, organism-based; details: in vivo
[20] = AUC in plasma of male Kunming mouse at 10 mg/kg, iv measured for 0.083 to 24 hrs by LC-MS/MS analysis; type: ADME, organism-based; details: time 0.083-24 hrs
[21] = Clearance male Sprague-Dawley rat at 10 mg/kg, po measured up to 24 hrs by LC-MS/MS analysis; type: ADME, organism-based; details: in vivo
[22] = Antioxidant activity assessed as DPPH radical scavenging activity at 60 uM incubated for 30 mins under dark condition by absorbance based method; type: functional
[23] = Cmax male Sprague-Dawley rat at 10 mg/kg, po measured up to 24 hrs by LC-MS/MS analysis; type: ADME, organism-based; details: in vivo

Chain of CYP2C19 (P33261 whole entry): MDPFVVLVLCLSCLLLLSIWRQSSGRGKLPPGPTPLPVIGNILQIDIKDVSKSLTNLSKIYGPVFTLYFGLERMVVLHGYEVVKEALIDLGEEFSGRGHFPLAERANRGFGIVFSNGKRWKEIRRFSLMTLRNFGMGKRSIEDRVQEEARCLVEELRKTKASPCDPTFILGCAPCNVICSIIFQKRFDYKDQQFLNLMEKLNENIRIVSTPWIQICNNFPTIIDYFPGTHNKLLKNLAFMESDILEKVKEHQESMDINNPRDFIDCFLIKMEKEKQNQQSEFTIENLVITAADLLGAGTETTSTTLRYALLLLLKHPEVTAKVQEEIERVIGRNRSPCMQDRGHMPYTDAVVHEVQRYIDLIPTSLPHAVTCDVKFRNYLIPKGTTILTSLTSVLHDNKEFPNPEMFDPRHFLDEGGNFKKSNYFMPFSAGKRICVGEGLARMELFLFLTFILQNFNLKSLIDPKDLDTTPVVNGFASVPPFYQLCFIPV
Chain of CYP3A4 (P08684 whole entry): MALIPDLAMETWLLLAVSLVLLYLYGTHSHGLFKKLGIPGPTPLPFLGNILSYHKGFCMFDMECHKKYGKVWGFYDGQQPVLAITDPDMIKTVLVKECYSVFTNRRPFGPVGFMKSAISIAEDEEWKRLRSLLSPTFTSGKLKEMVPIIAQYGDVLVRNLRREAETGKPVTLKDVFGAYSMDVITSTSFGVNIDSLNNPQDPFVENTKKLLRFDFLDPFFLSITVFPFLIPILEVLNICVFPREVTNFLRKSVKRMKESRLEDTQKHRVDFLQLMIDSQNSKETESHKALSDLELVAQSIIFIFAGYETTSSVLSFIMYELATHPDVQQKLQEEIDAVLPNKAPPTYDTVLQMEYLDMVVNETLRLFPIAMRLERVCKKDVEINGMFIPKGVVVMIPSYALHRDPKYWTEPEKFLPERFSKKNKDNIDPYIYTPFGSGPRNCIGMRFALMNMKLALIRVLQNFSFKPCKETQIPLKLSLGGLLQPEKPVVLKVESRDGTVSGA
Chain of P2Y purinoceptor 1 (Rattus norvegicus) (P49651 whole entry): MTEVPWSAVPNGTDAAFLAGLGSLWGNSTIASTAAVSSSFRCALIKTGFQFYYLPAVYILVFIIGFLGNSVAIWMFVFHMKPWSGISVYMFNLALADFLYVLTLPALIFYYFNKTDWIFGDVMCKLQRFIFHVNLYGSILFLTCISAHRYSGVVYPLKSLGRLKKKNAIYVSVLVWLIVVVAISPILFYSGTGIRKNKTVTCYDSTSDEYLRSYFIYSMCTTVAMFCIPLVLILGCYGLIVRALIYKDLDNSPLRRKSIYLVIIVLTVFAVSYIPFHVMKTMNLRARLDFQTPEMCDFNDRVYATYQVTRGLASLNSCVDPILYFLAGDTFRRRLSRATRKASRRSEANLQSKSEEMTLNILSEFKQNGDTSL

| SMILES | MRT inf [1] [min] | inhibition at 2 h, 10 µM (CYP1A2) [%] | Activity (Rattus norvegicus [2]) | Activity (HT-22) | Vd [3] [L/kg] | Activity [4] | AUC [5] [ng·h/mL] | Kp [6] | Activity (Rattus norvegicus [7]) | Activity (Rattus norvegicus [8]) | Kp [9] | inhibition at 2 h, 10 µM (CYP2C19) [%] | AUC [10] [µg·h/g] | inhibition at 2 h, 10 µM (CYP3A4) [%] | Activity (Rattus norvegicus [11]) | Cmax [12] [ng/mL] | fraction unbound at 12 h, 10 µM [13] | remaining at 3 h, 1 µM [14] [%] | Activity (Rattus norvegicus [15]) [%] | inhibition in vivo at 10 mg/kg (Rattus norvegicus [16]) [%] | other results |
| --- | --- | --- | --- | --- | --- | --- | --- | --- | --- | --- | --- | --- | --- | --- | --- | --- | --- | --- | --- | --- | --- |
| N#Cc1cccc(-c2nc(C(F)F)c(C(=O)O)n2OCc2csc(N)n2)c1 | 7.5 | 9 | Active | Active | 0.338 | Active | 14000 | 0.073 | Active; Water Content Did Not Return To Blank Level | Active; No Bleeding Loss Was Observed | 1.08 | 27.4 | 0.7 | 55.7 | Dose-dependent-effect; Outperformed Edaravone And Hnw001 At 10 Mg/Kg | 44300 | 0.092 | 99.4 | 25.6 | 38.8 | Activity (Rattus norvegicus [17]): 32%; bioavailability [18]: 0.31%; clearance [19]: 14.6 mL/min/kg; AUC [20]: 650 ng·h/mL; CL/F [21]: 4630 mL/min/kg; Activity [22]: 4.29%; Cmax ([23]; male, Sprague-Dawley, read-out: Cmax): 480 ng/mL |
| N#Cc1cccc(Oc2nc(-c3cccc(C#N)c3)ncc2C(=O)O)c1 | 27.2 | 6.5 | Active | Active | 0.404 | Active | 75200 | 0.25 | Active; Water Content Did Not Return To Blank Level; At 10 Mg/Kg, Compound Showed Comparable Effect To Bptu, Edaravone, Hnw001 | Moderate_effect; Moderate Bleeding Loss Was Observed; Potency Was More Than Bptu And Ticagrelor | 2.39 | 9.7 | 12.81 | 51.7 | Dose-dependent-effect; Outperformed Edaravone And Hnw001 At 10 Mg/Kg | 48200 | 0.046 | 71.5 | 29.3 | 37.2 | Activity (Rattus norvegicus [17]): 32%; bioavailability [18]: 4.1%; clearance [19]: 7 mL/min/kg; AUC [20]: 5360 ng·h/mL; CL/F [21]: 169 mL/min/kg; Activity [22]: 6.15%; Cmax ([23]; po, 10 mg/kg, 24 h): 610 ng/mL |
